Test results from US8492428B2 (priority 2005, dated 2013).
“Also recorded” adds a separate entry of the source. Like-named read-outs stand apart in the source and are kept apart here.

Key:
[1] = target: endopeptidase (LC) of botulinum neurotoxin serotype A (BoNTA) (Clostridium botulinum, UniProt P0DPI0); test: biochemical; details: for inhibition at 100 µM: read-out: % Inhibition at 100 μM, BoNTA LC
[2] = target: endopeptidase (LC) of botulinum neurotoxin serotype B (BoNTB) (Clostridium botulinum, UniProt P10844); test: biochemical; format: biochemical; details: for inhibition at 100 µM: read-out: % Inhibition at 100 μM, BoNTB LC
BoNTA light chain = BoNTA light chain (Clostridium botulinum, UniProt P0DPI0); test: biochemical
Sequence of BoNTA light chain (P0DPI0 2-448 limits assumed): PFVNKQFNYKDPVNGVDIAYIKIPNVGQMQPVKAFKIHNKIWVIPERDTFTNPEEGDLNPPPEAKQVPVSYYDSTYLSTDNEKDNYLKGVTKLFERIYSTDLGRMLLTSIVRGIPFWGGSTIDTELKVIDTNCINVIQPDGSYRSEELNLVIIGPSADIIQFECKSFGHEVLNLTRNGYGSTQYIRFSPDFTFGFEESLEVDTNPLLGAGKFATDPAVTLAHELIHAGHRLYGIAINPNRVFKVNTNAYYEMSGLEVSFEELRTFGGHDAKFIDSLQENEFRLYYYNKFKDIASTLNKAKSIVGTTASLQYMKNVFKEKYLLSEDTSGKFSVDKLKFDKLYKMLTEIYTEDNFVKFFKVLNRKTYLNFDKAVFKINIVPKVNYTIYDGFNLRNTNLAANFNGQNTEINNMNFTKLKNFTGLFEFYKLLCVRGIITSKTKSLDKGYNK

Sequence of endopeptidase (LC) of botulinum neurotoxin serotype A (BoNTA) (P0DPI0 2-448 limits assumed): as above
Sequence of endopeptidase (LC) of botulinum neurotoxin serotype B (BoNTB) (P10844 2-441 limits assumed): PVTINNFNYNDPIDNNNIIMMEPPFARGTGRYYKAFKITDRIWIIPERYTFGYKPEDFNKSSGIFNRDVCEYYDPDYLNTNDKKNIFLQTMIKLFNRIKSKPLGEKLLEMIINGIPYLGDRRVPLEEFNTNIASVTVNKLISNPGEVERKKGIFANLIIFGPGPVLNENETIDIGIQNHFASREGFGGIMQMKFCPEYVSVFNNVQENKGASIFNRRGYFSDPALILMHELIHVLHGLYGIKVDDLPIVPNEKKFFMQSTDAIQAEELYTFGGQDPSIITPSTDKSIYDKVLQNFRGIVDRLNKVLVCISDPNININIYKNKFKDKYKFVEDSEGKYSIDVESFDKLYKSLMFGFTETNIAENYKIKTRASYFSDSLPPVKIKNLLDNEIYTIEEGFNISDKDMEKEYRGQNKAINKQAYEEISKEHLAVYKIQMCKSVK

SMILES | inhibition at 100 µM [1] | melting point | inhibition of the endopeptidase of BoNTA, in words (comparisons) [1] | inhibition at 100 µM [2] | further results
O=C(O)Cc1cc(C(=O)c2ccc(Cl)cc2)sc1-c1ccccc1 [Compound 1, [5-(4-Chlorobenzoyl)-2-phenylthiophene-3-yl]acetic acid] | 15% | – | – | – | –
NNC(=O)Cc1cc(C(=O)c2ccc(Br)cc2)sc1-c1ccccc1 [Compound 6, [5-(4-Bromobenzoyl)-2-phenylthiophene-3-yl]acetic acid hydrazide] | – | 157 to 161 °C | – | – | –
O=C(O)Cc1cc(C(=O)c2ccc3cc(-c4ccccc4)[nH]c3c2)sc1-c1ccccc1 [Compound 8, [2-Phenyl-5-(2-phenyl-1H-indole-6-carbonyl)thiophene-3-yl]acetic acid] | – | – | less potent in inhibiting the endopeptidase than 1 and 2 | – | –
Cl.NCCCCn1c(-c2ccccc2)cc2ccc(C(=O)c3cc(CC(=O)NO)c(-c4ccccc4)s3)cc21 [Compound 12, 2-{5-[1-(4-Aminobutyl)-2-phenyl-1H-indole-6-carbonyl]-2-phenylthiophene-3-yl}-N-hydroxyacetamide hydrochloride] | 96% | – | – | 0% | effect of adding more zinc on the inhibition of BoNTA [1]: no effect; inhibition at 15 µM ([1]; read-out: % inhibition of BoNTA at 15 μM): 48%; effect on the endopeptidase of BoNTB, in words ([2]; hydrochloride): no effect; also recorded: did not inhibit; Ki (BoNTA light chain): 12 ± 2.6 µM
Nc1cc(C(=O)c2cc(CC(=O)NO)c(-c3ccccc3)s2)ccc1I [Compound 4, 2-[5-(3-Amino-4-iodobenzoyl)-2-phenylthiophene-3-yl]-N-hydroxyacetamide] | 40% | > 170 °C (dec.) | more active in inhibiting the endopeptidase than 2 | 0% | effect on the endopeptidase of BoNTB, in words [2]: no effect
O=C(Cc1cc(C(=O)c2ccc(Cl)cc2)sc1-c1ccccc1)NO [Compound 2, 2-[5-(4-Chlorobenzoyl)-2-phenylthiophene-3-yl]-N-hydroxyacetamide] | 30% | – | more active in inhibiting the endopeptidase than 1 | 0% | effect on the endopeptidase of BoNTB, in words [2]: no effect
O=C(Cc1cc(C(=O)c2ccc(I)c([N+](=O)[O-])c2)sc1-c1ccccc1)NO [Compound 5, 2-[5-(3-Nitro-4-iodobenzoyl)-2-phenylthiophene-3-yl]-N-hydroxyacetamide] | – | 147 to 151 °C | – | – | –
NNC(=O)Cc1cc(C(=O)c2ccc(I)c(N)c2)sc1-c1ccccc1 [Compound 7, [5-(3-Amino-4-iodobenzoyl)-2-phenylthiophene-3-yl]acetic acid hydrazide] | – | 159 to 165 °C | – | – | –
O=C(Cc1cc(C(=O)c2ccc3cc(-c4ccccc4)[nH]c3c2)sc1-c1ccccc1)NO [Compound 9, N-Hydroxy-2-[2-phenyl-5-(2-phenyl-1H-indole-6-carbonyl)thiophene-3-yl]acetamide] | – | – | less potent in inhibiting the endopeptidase than 1 and 2 | – | –
